Laboratory results reported in US8859584B2, “TRPV1 antagonists” (AbbVie Inc., priority 2011, dated 2014).
Like-named read-outs stand apart in the source and are kept apart here.

What was measured:
human TRPV1 [1] = target: T1, human TRPV1 (Homo sapiens, UniProt Q8NER1); assay: Acid Activation Assay (pH 5.0, FLIPR intracellular Ca2+, recombinant HEK293 cells); format: cell-based; conditions: percentage of maximal pH 5.0-induced response remaining; HEK293 hTRPV1; max concentration 37.5 μM
T1 construct: expressed in transfected cells
Description: (ii) Acid Activation Assay
Dulbecco's modified Eagle's medium (DMEM) with 4.5 mg/mL D-glucose, fetal bovine serum, L-glutamine, and 2-morpholinoethanesulfonic acid (MES) were purchased from Sigma-Aldrich Co. (St. Louis, Mo.). […] The FLIPR® Calcium 4 assay kit was purchased from Molecular Devices (Sunnyvale, Calif.).
(§1) Expression plasmids encoding the hTRPV1 cDNA were transfected into HEK293 cells using Lipofectamine®. Forty-eight hours after transfection, the neomycin-resistant cells were selected with growth medium containing 800 μg/mL Geneticin (Life Technologies, formerly Gibco BRL). Surviving individual colonies were isolated and screened for TRPV1 activity. Cells expressing recombinant TRPV1 were maintained at 37° C. in DMEM containing 4 mM L-glutamine, 300 μg/mL G418 (Calbiochem) and 10% fetal bovine serum under a humidified 5% CO2 atmosphere.
The functional activity of compounds at the TRPV1 receptor was determined by measurement of intracellular Ca^2+ levels ([Ca^2+]i) using the Fluorescence Imaging Plate Reader (FLIPR)TETRA®. […] Compound stocks, 10 mM, were prepared in DMSO, and diluted serially across a 384-well plate using a Bravo BenchCel workstation (Agilent Technologies, Santa Clara, Calif.). On the day prior to the experiment, the recombinant HEK293 cells expressing human TRPV1 (hTRPV1) were removed from tissue culture flasks and plated in growth medium into black-walled clear-bottom 384-well Biocoat™ poly-D-lysine assay plates (BD Biosciences, Bedford, Mass.) using a Multidrop® dispenser (ThermoScientific, Waltham, Mass.). […] The plated cells were incubated for 90-120 min in the dark at 25° C. The test compounds dissolved in DMSO were then added to the plates using an Agilent Bravo workstation (Agilent Technologies Inc., Santa Clara, Calif.). Three minutes later, a pH 5.0 solution was added to each well. Reagents were delivered at a rate of 40 μL/sec, and the final assay volume was 80 μL. Acidic pH solutions were prepared by titration of DPBS/MES with 1 N HCl. The intensity of the fluorescence was captured and digitally transferred to an interfaced PC. The maximum peak measured for the concentration range tested was used to calculate the corresponding peak increase in fluorescence over baseline (relative fluorescence units) which was expressed as the percentage (max % remain) of the maximal pH 5.0-induced response.

human TRPV1 [2] = target: T1, human TRPV1; assay: Capsaicin Activation Assay (FLIPR intracellular Ca2+, recombinant HEK293 cells); format: cell-based
Description: (i) Capsaicin Activation Assay
Dulbecco's modified Eagle medium (DMEM) (with 4.5 mg/mL glucose) and fetal bovine serum were obtained from Hyclone Laboratories, Inc. (Logan, Utah). Dulbecco's phosphate-buffered saline (DPBS) (with 1 mg/mL glucose and 3.6 mg/l Na pyruvate, without phenol red), L-glutamine, hygromycin B, and Lipofectamine® were obtained from Life Technologies (Grand Island, N.Y.). G418 sulfate was obtained from Calbiochem-Novabiochem Corp. (San Diego, Calif.). Capsaicin (8-methyl-N-vanillyl-6-nonenamide) was obtained from Sigma-Aldrich, Co. (St. Louis, Mo.). Fluo-4 AM (N-[4-[6-[(acetyloxy)-methoxy]-2,7-difluoro-3-oxo-3H-xanthen-9-yl]-2-[2-[2-[bis[2-[(acetyloxy)methoxy]-2-oxyethyl]amino]-5-methylphenoxy]ethoxy]phenyl]-N-[2-[(acetyloxy)methoxy]-2-oxyethyl]-glycine, (acetyloxy)methyl ester) was purchased from Molecular Probes (Eugene, Oreg.).
as §1
The functional activity of compounds at the TRPV1 receptor was determined by measurement of intracellular Ca^2+ levels ([Ca^2+]i) using the Fluorescence Imaging Plate Reader (FLIPR)TETRA®. All compounds were tested over a 12-point one-third-log concentration range. Compound stocks, 10 mM, were prepared in DMSO, and diluted serially across a 384-well plate using a Bravo BenchCel workstation (Agilent Technologies, Santa Clara, Calif.). A stock concentration of capsaicin (10 mM) was made in DMSO, and diluted in DPBS to a final concentration of 200 nM (4×). On the day prior to the experiment, the recombinant HEK293 cells expressing human TRPV1 (hTRPV1) were removed from tissue culture flasks and plated in growth medium into black-walled clear-bottom 384-well Biocoat™ poly-D-lysine assay plates (BD Biosciences, Bedford, Mass.) using a Multidrop® dispenser (ThermoScientific, Waltham, Mass.). […] The plated cells were incubated for 90-120 minutes in the dark at room temperature and then test compound was added to each well. Three minutes later, 200 nM capsaicin (4×) solution was added to each well in an amount sufficient to provide a final assay volume of 80 μL and capsaicin concentration of 50 nM. Fluorescence readings were made at 1 to 5 second intervals over the course of the experimental run. The peak increase in relative fluorescence units (minus baseline) was calculated, and expressed as a percentage of the 50 nM capsaicin (control) response.

[3] = recombinant HEK293 cells expressing hTRPV1, 50 nM capsaicin, read-out: human TRPV1 capsaicin IC50

T1 sequence (Q8NER1 whole entry): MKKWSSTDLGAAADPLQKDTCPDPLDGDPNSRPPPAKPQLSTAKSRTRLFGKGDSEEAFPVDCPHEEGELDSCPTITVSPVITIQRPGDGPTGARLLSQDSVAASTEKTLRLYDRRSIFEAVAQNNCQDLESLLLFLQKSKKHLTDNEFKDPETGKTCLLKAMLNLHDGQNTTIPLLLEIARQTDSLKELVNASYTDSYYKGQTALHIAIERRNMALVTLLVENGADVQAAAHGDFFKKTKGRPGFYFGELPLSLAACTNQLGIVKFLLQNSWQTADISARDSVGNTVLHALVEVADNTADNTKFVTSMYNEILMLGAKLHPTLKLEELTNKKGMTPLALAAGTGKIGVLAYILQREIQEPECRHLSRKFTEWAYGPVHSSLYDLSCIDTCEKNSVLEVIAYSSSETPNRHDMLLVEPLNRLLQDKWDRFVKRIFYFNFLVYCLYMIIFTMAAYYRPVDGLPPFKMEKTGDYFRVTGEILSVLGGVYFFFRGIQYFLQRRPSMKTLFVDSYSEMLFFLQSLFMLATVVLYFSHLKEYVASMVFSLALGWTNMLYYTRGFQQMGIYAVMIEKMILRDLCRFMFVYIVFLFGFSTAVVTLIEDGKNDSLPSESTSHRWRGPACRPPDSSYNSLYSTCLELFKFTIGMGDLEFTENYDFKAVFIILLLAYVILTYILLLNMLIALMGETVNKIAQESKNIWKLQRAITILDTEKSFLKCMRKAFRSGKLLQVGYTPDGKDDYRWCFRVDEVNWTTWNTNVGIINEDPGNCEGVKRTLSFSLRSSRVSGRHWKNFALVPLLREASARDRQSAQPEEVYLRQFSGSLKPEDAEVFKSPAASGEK

Row | human TRPV1 H+ (max % remain) (human TRPV1 [1]) [%] | IC50 (human TRPV1 [2]; [3]) [nM] | IC50 (human TRPV1 [2]) [nM] | Compound
1 | 2 | 62 |  | O=C(Nc1c(F)ccc2c1C[C@H](O)C2)N[C@@H]1CC(CF)(CF)Oc2cc(C(F)(F)F)ccc21 [Example 96, 1-[(4R)-2,2-bis(fluoromethyl)-7-(trifluoromethyl)-3,4-dihydro-2H-chromen-4-yl]-3-[(2R)-5-fluoro-2-hydroxy-2,3-dihydro-1H-inden-4-yl]urea]
2 | 5 | 2800 |  | CC1(C)C[C@@H](NC(=O)Nc2ccc(F)c3c2C[C@H](O)C3)c2cccc(F)c2O1 [Example 136, 1-[(4R)-8-fluoro-2,2-dimethyl-3,4-dihydro-2H-chromen-4-yl]-3-[(2S)-7-fluoro-2-hydroxy-2,3-dihydro-1H-inden-4-yl]urea]
3 | 73 | 270 |  | O=C(Nc1cccc2c1C[C@H](O)C2)N[C@@H]1CCOc2cc(F)ccc21 [Example 65, 1-[(4R)-7-fluoro-3,4-dihydro-2H-chromen-4-yl]-3-[(2R)-2-hydroxy-2,3-dihydro-1H-inden-4-yl]urea]
4 | 27 | 790 |  | CC1(C)C[C@@H](NC(=O)Nc2cccc3c2C[C@@H](O)C3)c2cc(F)ccc2O1 [Example 83, 1-[(4R)-6-fluoro-2,2-dimethyl-3,4-dihydro-2H-chromen-4-yl]-3-[(2S)-2-hydroxy-2,3-dihydro-1H-inden-4-yl]urea]
5 | 23 | 52 |  | CCC1(CC)C[C@@H](NC(=O)Nc2cccc3c2C[C@H](O)C3)c2ccc(OC(F)(F)F)cc2O1 [Example 60, 1-[(4R)-2,2-diethyl-7-(trifluoromethoxy)-3,4-dihydro-2H-chromen-4-yl]-3-[(2R)-2-hydroxy-2,3-dihydro-1H-inden-4-yl]urea]
6 | 83 | 3500 |  | O=C(Nc1cccc2c1CC(O)C2)NC1c2ccccc2CC1Cc1ccccc1 (stereo not shown) [Example 125, 1-(2-benzyl-2,3-dihydro-1H-inden-1-yl)-3-(2-hydroxy-2,3-dihydro-1H-inden-4-yl)urea]
7 | 86 | 20 |  | Cc1c(F)ccc2c1OC(C)(C)C[C@H]2NC(=O)Nc1cccc2c1C[C@H](O)C2 [Example 62, 1-[(4R)-7-fluoro-2,2,8-trimethyl-3,4-dihydro-2H-chromen-4-yl]-3-[(2R)-2-hydroxy-2,3-dihydro-1H-inden-4-yl]urea]
8 | 3 | 1100 |  | O=C(Nc1ccc(F)c2c1C[C@H](O)C2)N[C@@H]1CC2(CCC2)Oc2ccc(F)cc21 [Example 143, 1-[(4R)-6-fluoro-3,4-dihydrospiro[chromene-2,1′-cyclobutan]-4-yl]-3-[(2S)-7-fluoro-2-hydroxy-2,3-dihydro-1H-inden-4-yl]urea]
9 | 99 | 220 |  | O=C(Nc1cccc2c1C[C@H](O)C2)N[C@@H]1CC(CF)(CF)Oc2c(F)cccc21 [Example 70, 1-[(4R)-8-fluoro-2,2-bis(fluoromethyl)-3,4-dihydro-2H-chromen-4-yl]-3-[(2R)-2-hydroxy-2,3-dihydro-1H-inden-4-yl]urea]
10 | 3 |  | 349 | O=C(Nc1ccc(F)c2c1C[C@H](O)C2)N[C@@H]1CC(CF)(CF)Oc2cc(Cl)ccc21 [Example 134, 1-[(4R)-7-chloro-2,2-bis(fluoromethyl)-3,4-dihydro-2H-chromen-4-yl]-3-[(2S)-7-fluoro-2-hydroxy-2,3-dihydro-1H-inden-4-yl]urea]

More lines, now with the values behind:

Row | Compound | human TRPV1 H+ (max % remain) (human TRPV1 [1]) [%] | IC50 (human TRPV1 [2]; [3]) [nM] | IC50 (human TRPV1 [2]) [nM]
11 | 1-[(2R)-7-fluoro-2-hydroxy-2,3-dihydro-1H-inden-4-yl]-3-[(4R)-8-(trifluoromethyl)-3,4-dihydro-2H-chromen-4-yl]urea [Example 173] | 39 | 210 | 
12 | CC1(C)C[C@@H](NC(=O)Nc2ccc(F)c3c2C[C@@H](O)C3)c2ccc(F)c(F)c2O1 [Example 171, 1-[(4R)-7,8-difluoro-2,2-dimethyl-3,4-dihydro-2H-chromen-4-yl]-3-[(2R)-7-fluoro-2-hydroxy-2,3-dihydro-1H-inden-4-yl]urea] | 47 | 400 | 
13 | O=C(Nc1ccc(F)c2c1C[C@@H](O)C2)N[C@@H]1CC(CF)(CF)Oc2cc(OC(F)(F)F)ccc21 [Example 159, 1-[(4R)-2,2-bis(fluoromethyl)-7-(trifluoromethoxy)-3,4-dihydro-2H-chromen-4-yl]-3-[(2R)-7-fluoro-2-hydroxy-2,3-dihydro-1H-inden-4-yl]urea] | 36 | 420 | 
14 | O=C(Nc1cccc2c1C[C@@H](O)C2)N[C@@H]1CC(CF)(CF)Oc2cc(Cl)ccc21 [Example 24, 1-[(4R)-7-chloro-2,2-bis(fluoromethyl)-3,4-dihydro-2H-chromen-4-yl]-3-[(2S)-2-hydroxy-2,3-dihydro-1H-inden-4-yl]urea] | 6 | 27 | 
15 | CC(C)(C)c1ccc2c(c1)CC[C@H]2NC(=O)Nc1cccc2c1C[C@H](O)C2 [Example 50, 1-[(1R)-5-tert-butyl-2,3-dihydro-1H-inden-1-yl]-3-[(2R)-2-hydroxy-2,3-dihydro-1H-inden-4-yl]urea] | 69 | 32 | 
16 | CC1(C)C[C@@H](NC(=O)Nc2cccc3c2C[C@H](O)C3)c2ccc(OC(F)(F)F)cc2O1 [Example 30, 1-[(4R)-2,2-dimethyl-7-(trifluoromethoxy)-3,4-dihydro-2H-chromen-4-yl]-3-[(2R)-2-hydroxy-2,3-dihydro-1H-inden-4-yl]urea] | 39 | 42 | 
17 | O=C(Nc1cccc2c1CC(O)C2)NC1c2ccccc2OCC1Cc1ccc(Cl)c(Cl)c1 (stereo not shown) [Example 112, 1-[3-(3,4-dichlorobenzyl)-3,4-dihydro-2H-chromen-4-yl]-3-(2-hydroxy-2,3-dihydro-1H-inden-4-yl)urea] | 77 | 980 | 
18 | O=C(Nc1cccc2c1C[C@@H](O)C2)N[C@@H]1CC(CF)(CF)Oc2ccc(F)cc21 [Example 78, 1-[(4R)-6-fluoro-2,2-bis(fluoromethyl)-3,4-dihydro-2H-chromen-4-yl]-3-[(2S)-2-hydroxy-2,3-dihydro-1H-inden-4-yl]urea] | 12 | 1400 | 
19 | O=C(Nc1cccc2c1C[C@H](O)C2)N[C@H]1CC(CF)(CF)Oc2cc(Cl)ccc21 [Example 97, 1-[(4S)-7-chloro-2,2-bis(fluoromethyl)-3,4-dihydro-2H-chromen-4-yl]-3-[(2R)-2-hydroxy-2,3-dihydro-1H-inden-4-yl]urea] | 58 | 1100 | 
20 | O=C(Nc1cccc2c1C[C@H](O)C2)N[C@@H]1CCc2c1cccc2C(F)(F)F [Example 41, 1-[(2R)-2-hydroxy-2,3-dihydro-1H-inden-4-yl]-3-[(1R)-4-(trifluoromethyl)-2,3-dihydro-1H-inden-1-yl]urea] | 56 | 13 | 
